Key:
[1] = PK experiments in rats: plasma compound (I) after oral dosing of prodrug; type: in vivo, Wistar rats; conditions: Wistar rats, oral
Method: Plasma was placed on water-ice following collection. Final storage at approximately −70° C.
Mobile phase B: Acetonitrile. […] Flow rate 0.5 mL/min.
The rats had unrestricted access to the diet.
Mobile phase B: Acetonitrile+0.2% formic acid. […] Flow rate 0.3 mL/min.
Dosing and blood sampling: Han Wistar rats were supplied by Envigo, UK. […] The rats received a standard laboratory diet Teklad 2014C. The rats had unrestricted access to the diet. […] Rats were given […] (Ic), 487 ag/kg compound (7), 487 ag/kg Compound (4), 674 ag/kg compound (9), 359 ag/kg A6 and 551 ag/kg A2.

[2] = target: T1, human 5-HT2B receptor (Homo sapiens, UniProt P41595); test: 5-HT2B agonist activity assay (IP1 production, HTRF, transfected CHO cells); type: cell-based
T1 construct: host or cells: CHO cells (membrane homogenates)
Method: Evaluation of the agonist activity of compounds (I), (Ia) and (Ib) at the human 5-HT2B receptor was performed by Eurofins/Cerep (France) measuring the compound effects on inositol monophosphate (IP1) production using the HTRF detection method. Briefly, the human 5-HT2B receptor was expressed in transfected CHO cells. The cells were suspended in a buffer containing 10 mM Hepes/NaOH (pH 7.4), 4.2 mM KCl, 146 mM NaCl, 1 mM CaCl2, 0.5 mM MgCl2, 5.5 mM glucose and 50 mM LiCl, then distributed in microplates at a density of 4100 cells/well and incubated for 30 minutes at 37° C. in the presence of buffer (basal control), test compound or reference agonist. For stimulated control measurement, separate assay wells contained 1 μM 5-HT. Following incubation, the cells were lysed and the fluorescence acceptor (fluorophen D2-labeled IP1) and fluorescence donor (anti-IP1 antibody labeled with europium cryptate) were added. After 60 minutes at room temperature, the fluorescence transfer was measured at lambda(Ex) 337 nm and lambda(Em) 620 and 665 nm using a microplate reader (Rubystar, BMG). The IP1 concentration was determined by dividing the signal measured at 665 nm by that measured at 620 nm (ratio). The results were expressed as a percent of the control response to 1 μM 5-HT. […]

[3] = man, oral dosing; cited from earlier work

T1 sequence (P41595 whole entry): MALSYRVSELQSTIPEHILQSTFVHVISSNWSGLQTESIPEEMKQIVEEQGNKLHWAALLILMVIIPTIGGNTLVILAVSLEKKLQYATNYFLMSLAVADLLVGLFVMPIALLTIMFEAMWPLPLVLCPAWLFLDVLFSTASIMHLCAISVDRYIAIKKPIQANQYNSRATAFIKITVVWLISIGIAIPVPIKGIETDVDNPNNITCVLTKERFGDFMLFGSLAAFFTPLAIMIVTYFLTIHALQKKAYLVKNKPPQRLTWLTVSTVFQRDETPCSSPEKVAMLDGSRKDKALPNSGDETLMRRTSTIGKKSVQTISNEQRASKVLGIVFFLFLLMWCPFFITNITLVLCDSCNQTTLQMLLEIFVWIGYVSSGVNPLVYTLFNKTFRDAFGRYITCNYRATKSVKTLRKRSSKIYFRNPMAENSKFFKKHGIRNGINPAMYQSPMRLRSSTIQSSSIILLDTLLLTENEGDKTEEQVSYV

Structure (SMILES) | plasma concentrations of compound (I) after oral dosing (in words) [1] | 5-HT2B % @ 30 uM ([2]; 30 uM, percent of control response to 1 μM 5-HT) | 5-HT2B receptor agonism (in words) [2] | oral bioavailability [3]
CCCN1CCC[C@@H]2CC3=C(CCCC3=O)C[C@H]21 [(Ia), reference compound] | early and high peak plasma concentrations of compound (I) | 58% | – | –
CCCN1CCC[C@@H]2Cc3c(ccc4c3OCO4)C[C@H]21 [(Ib), (6aR,10aR)-7-propyl-6,6a,7,8,9,10,10a,11-octahydro-[1,3]dioxolo[4′,5′:5,6]benzo[1,2-g]quinoline, reference compound] | early and high peak plasma concentrations of compound (I) | – | agonist of the 5-HT2B receptor | –
CCCc1cc2c(s1)CN[C@@H]1CCc3cc(OC(C)=O)c(OC(C)=O)cc3[C@@H]21 [Adrogolide] | – | – | – | ~4%
